Data: ChEMBL document CHEMBL1201862, “PubChem BioAssay data set” (2004)
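Interpolation was linear, between the two tested concentrations surrounding the appropriate level; five concentrations were tested over 48 hours in 96-well plates. Abbreviation: GI50, concentration required for 50% inhibition of growth.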 Activity calls are given as the source filed them. No stated cut-off is given here; in the data, active = GI50 up to about 1.1 µM and inactive = higher.

Tests used:
Experiment in all cases: NCI-60 cell line screen, 48 h
SNB-19 = test system: SNB-19
M14 = test system: M14
Malme-3M = test system: Malme-3M
PC-3 = test system: PC-3
HCT-15 = test system: HCT-15
K562 = test system: K562
MDA-MB-435 = test system: MDA-MB-435
SF-539 = test system: SF-539
OVCAR-8 = test system: OVCAR-8
IGROV-1 = test system: IGROV-1
BT-549 = test system: BT-549
LOX IMVI = test system: LOX IMVI
HOP-62 = test system: HOP-62
COLO 205 = test system: COLO 205
MDA-MB-231 = test system: MDA-MB-231
KM12 = test system: KM12
HL-60 = test system: HL-60
RPMI-8226 = test system: RPMI-8226
HCC 2998 = test system: HCC 2998
SN12C = test system: SN12C
NCI-H522 = test system: NCI-H522
U-251 = test system: U-251
OVCAR-4 = test system: OVCAR-4
HOP-92 = test system: HOP-92
786-0 = test system: 786-0
SF-268 = test system: SF-268
ACHN = test system: ACHN
OVCAR-5 = test system: OVCAR-5
NCI-H23 = test system: NCI-H23
MCF7 = test system: MCF7
HT-29 = test system: HT-29
A498 = test system: A498
SW-620 = test system: SW-620
DU-145 = test system: DU-145
UACC-257 = test system: UACC-257
SK-MEL-28 = test system: SK-MEL-28
T47D = test system: T47D
SK-MEL-2 = test system: SK-MEL-2
EKVX = test system: EKVX
TK-10 = test system: TK-10
SF-295 = test system: SF-295
SR = test system: SR
SK-OV-3 = test system: SK-OV-3
CCRF-CEM = test system: CCRF-CEM
MOLT-4 = test system: MOLT-4
SK-MEL-5 = test system: SK-MEL-5
UO-31 = test system: UO-31
OVCAR-3 = test system: OVCAR-3
NCI-H226 = test system: NCI-H226
NCI-H460 = test system: NCI-H460
NCI/ADR-RES = test system: NCI/ADR-RES
Hs-578T = test system: Hs-578T
MDA-N = test system: MDA-N
A549 = test system: A549
CAKI-1 = test system: CAKI-1
SNB-75 = test system: SNB-75
UACC-62 = test system: UACC-62
HCT-116 = test system: HCT-116
RXF 393 = test system: RXF 393

With `CS(=O)(=O)Nc1ccc2ccccc2c1` the GI50 (SNB-19) was > 100 µM (inactive), the GI50 (M14) was > 100 µM (inactive) and the GI50 (Malme-3M) was > 100 µM (inactive). For the same compound, the GI50 (PC-3) was > 100 µM (inactive), the GI50 (HCT-15) was over 100 µM and the GI50 (K562) was > 100 µM (inactive). For the same compound, the GI50 (MDA-MB-435) was > 100 µM (inactive), the GI50 (SF-539) was > 100 µM (inactive) and the GI50 (OVCAR-8) was > 100 µM (inactive). For the same compound, the GI50 (IGROV-1) was > 100 µM (inactive), the GI50 (BT-549) was 30.4 µM (inactive) and the GI50 (LOX IMVI) was > 100 µM (inactive). For the same compound, the GI50 (HOP-62) was 95.7 µM (inactive), the GI50 (COLO 205) was > 100 µM (inactive) and the GI50 (MDA-MB-231) was > 100 µM (inactive). The GI50 (KM12) was > 100 µM (inactive), the GI50 (HL-60) was > 100 µM (inactive) and the GI50 (RPMI-8226) was > 100 µM (inactive). For the same compound, the GI50 (HCC 2998) was > 100 µM (inactive), the GI50 (SN12C) was > 100 µM (inactive) and the GI50 (NCI-H522) was > 100 µM (inactive). For the same compound, the GI50 (U-251) was > 100 µM (inactive), the GI50 (OVCAR-4) was > 100 µM (inactive) and the GI50 (HOP-92) was 87.7 µM (inactive). For the same compound, the GI50 (786-0) was > 100 µM (inactive), the GI50 (SF-268) was > 100 µM (inactive) and the GI50 (ACHN) was > 100 µM (inactive). For the same compound, the GI50 (OVCAR-5) was > 100 µM (inactive), the GI50 (NCI-H23) was > 100 µM (inactive) and the GI50 (MCF7) was > 100 µM (inactive). The GI50 (HT-29) was > 100 µM (inactive), the GI50 (A498) was > 100 µM (inactive) and the GI50 (SW-620) was > 100 µM (inactive). The GI50 (DU-145) was > 100 µM (inactive), the GI50 (UACC-257) was > 100 µM (inactive) and the GI50 (SK-MEL-28) was > 100 µM (inactive). The GI50 (T47D) was > 100 µM (inactive), the GI50 (SK-MEL-2) was > 100 µM (inactive) and the GI50 (EKVX) was 57.3 µM (inactive). The GI50 (TK-10) was > 100 µM (inactive), the GI50 (SF-295) was > 100 µM (inactive) and the GI50 (SR) was > 100 µM (inactive). The GI50 (SK-OV-3) was > 100 µM (inactive), the GI50 (CCRF-CEM) was > 100 µM (inactive) and the GI50 (MOLT-4) was > 100 µM (inactive). For the same compound, the GI50 (SK-MEL-5) was > 100 µM (inactive), the GI50 (UO-31) was 21.1 µM (inactive) and the GI50 (OVCAR-3) was > 100 µM (inactive). For the same compound, the GI50 (NCI-H226) was 79.4 µM (inactive), the GI50 (NCI-H460) was > 100 µM (inactive) and the GI50 (NCI/ADR-RES) was > 100 µM (inactive). The GI50 (Hs-578T) was > 100 µM (inactive), the GI50 (MDA-N) was > 100 µM (inactive) and the GI50 (A549) was > 100 µM (inactive). For the same compound, the GI50 (CAKI-1) was > 100 µM (inactive), the GI50 (SNB-75) was > 100 µM (inactive) and the GI50 (UACC-62) was > 100 µM (inactive). The GI50 (HCT-116) was > 100 µM (inactive).
With `CCCC[Si](CCCC)(CCCC)O[C@@H](/C=C/C(=O)OCC)[C@H](Cc1ccccc1)O[Si](CCCC)(CCCC)CCCC` the GI50 (SNB-19) was > 100 µM (inactive), the GI50 (Malme-3M) was > 100 µM (inactive) and the GI50 (PC-3) was > 100 µM (inactive). For the same compound, the GI50 (HCT-15) was over 100 µM, the GI50 (K562) was > 100 µM (inactive) and the GI50 (MDA-MB-435) was > 100 µM (inactive). For the same compound, the GI50 (SF-539) was > 100 µM (inactive), the GI50 (OVCAR-8) was > 100 µM (inactive) and the GI50 (IGROV-1) was > 100 µM (inactive). The GI50 (BT-549) was > 100 µM (inactive), the GI50 (LOX IMVI) was > 100 µM (inactive) and the GI50 (HOP-62) was > 100 µM (inactive). For the same compound, the GI50 (COLO 205) was > 100 µM (inactive), the GI50 (MDA-MB-231) was > 100 µM (inactive) and the GI50 (KM12) was > 100 µM (inactive). For the same compound, the GI50 (RPMI-8226) was > 100 µM (inactive), the GI50 (HCC 2998) was > 100 µM (inactive) and the GI50 (SN12C) was > 100 µM (inactive). For the same compound, the GI50 (NCI-H522) was > 100 µM (inactive), the GI50 (U-251) was > 100 µM (inactive) and the GI50 (OVCAR-4) was > 100 µM (inactive). The GI50 (HOP-92) was > 100 µM (inactive), the GI50 (786-0) was > 100 µM (inactive) and the GI50 (SF-268) was > 100 µM (inactive). For the same compound, the GI50 (ACHN) was > 100 µM (inactive), the GI50 (OVCAR-5) was > 100 µM (inactive) and the GI50 (NCI-H23) was > 100 µM (inactive). The GI50 (MCF7) was > 100 µM (inactive), the GI50 (HT-29) was > 100 µM (inactive) and the GI50 (A498) was > 100 µM (inactive). The GI50 (SW-620) was > 100 µM (inactive), the GI50 (DU-145) was > 100 µM (inactive) and the GI50 (UACC-257) was > 100 µM (inactive). For the same compound, the GI50 (T47D) was > 100 µM (inactive), the GI50 (SK-MEL-2) was > 100 µM (inactive) and the GI50 (EKVX) was > 100 µM (inactive). For the same compound, the GI50 (TK-10) was 40.1 µM (inactive), the GI50 (RXF 393) was > 100 µM (inactive) and the GI50 (SF-295) was > 100 µM (inactive). The GI50 (SR) was > 100 µM (inactive), the GI50 (SK-OV-3) was > 100 µM (inactive) and the GI50 (CCRF-CEM) was > 100 µM (inactive). For the same compound, the GI50 (MOLT-4) was > 100 µM (inactive), the GI50 (UO-31) was > 100 µM (inactive) and the GI50 (NCI-H226) was > 100 µM (inactive). The GI50 (NCI-H460) was > 100 µM (inactive), the GI50 (NCI/ADR-RES) was > 100 µM (inactive) and the GI50 (Hs-578T) was > 100 µM (inactive). The GI50 (MDA-N) was > 100 µM (inactive), the GI50 (A549) was > 100 µM (inactive) and the GI50 (CAKI-1) was > 100 µM (inactive). For the same compound, the GI50 (SNB-75) was > 100 µM (inactive), the GI50 (UACC-62) was > 100 µM (inactive) and the GI50 (HCT-116) was > 100 µM (inactive).
